Tests used:
EGFR(S752-I759del) = EGFR(S752-I759del) (Homo sapiens, UniProt P00533, DEL752-759); assay: biochemical; format: binding; conditions: read-out: Percent Control
FLT3(R834Q) = FLT3(R834Q) (Homo sapiens, UniProt P36888, R834Q); assay: biochemical; format: binding; conditions: 1000 nM, read-out: Percent Control
KIT(V559D) = KIT(V559D) (Homo sapiens, UniProt P10721, V559D); assay: biochemical; format: binding; conditions: 1000 nM, read-out: Percent Control
PIK3CA(H1047L) [1] = target: T1, PIK3CA(H1047L) (Homo sapiens, UniProt P42336, H1047L); assay: biochemical; format: binding; conditions: compound concentration 100 nM; Entrez PIK3CA; read-out: Percent Control
T1 sequence (P42336 whole entry H1047L): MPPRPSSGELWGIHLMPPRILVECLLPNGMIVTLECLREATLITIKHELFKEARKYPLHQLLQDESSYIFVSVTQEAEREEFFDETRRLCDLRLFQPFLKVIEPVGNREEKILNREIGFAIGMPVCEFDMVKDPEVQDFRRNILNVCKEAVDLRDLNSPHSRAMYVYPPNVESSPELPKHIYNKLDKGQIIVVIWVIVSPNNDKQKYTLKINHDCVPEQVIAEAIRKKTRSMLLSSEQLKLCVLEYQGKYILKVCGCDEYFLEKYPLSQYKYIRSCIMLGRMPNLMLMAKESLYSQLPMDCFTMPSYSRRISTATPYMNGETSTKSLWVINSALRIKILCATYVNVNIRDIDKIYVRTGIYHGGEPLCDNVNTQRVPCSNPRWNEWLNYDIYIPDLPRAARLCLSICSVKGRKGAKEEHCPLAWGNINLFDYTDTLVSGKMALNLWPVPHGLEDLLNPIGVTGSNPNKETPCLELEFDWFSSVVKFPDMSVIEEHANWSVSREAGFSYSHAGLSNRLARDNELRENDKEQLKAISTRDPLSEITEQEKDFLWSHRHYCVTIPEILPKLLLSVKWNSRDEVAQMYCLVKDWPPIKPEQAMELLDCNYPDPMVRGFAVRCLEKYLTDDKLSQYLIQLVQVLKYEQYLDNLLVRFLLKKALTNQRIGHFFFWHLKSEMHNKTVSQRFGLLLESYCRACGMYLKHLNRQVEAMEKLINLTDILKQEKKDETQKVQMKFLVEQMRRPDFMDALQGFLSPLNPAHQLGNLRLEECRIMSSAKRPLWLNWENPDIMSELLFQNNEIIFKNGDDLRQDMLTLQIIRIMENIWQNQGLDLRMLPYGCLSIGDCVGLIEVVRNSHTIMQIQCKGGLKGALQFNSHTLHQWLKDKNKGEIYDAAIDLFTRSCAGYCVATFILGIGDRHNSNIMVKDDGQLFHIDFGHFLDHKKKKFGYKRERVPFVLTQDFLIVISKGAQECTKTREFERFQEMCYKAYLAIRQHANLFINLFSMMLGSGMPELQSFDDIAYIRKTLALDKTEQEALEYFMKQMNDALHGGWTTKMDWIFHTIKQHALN

EGFR(L858R) = EGFR(L858R) (Homo sapiens, UniProt P00533, L858R); assay: biochemical; format: binding; conditions: compound concentration 100 nM; Entrez EGFR; read-out: Percent Control
EGFR(G719S) = EGFR(G719S) (Homo sapiens, UniProt P00533, G719S); assay: biochemical; format: binding; conditions: 1000 nM, read-out: Percent Control
BRPF1B = BRPF1B (Homo sapiens, UniProt P55201); assay: DSF selectivity screening; format: binding; conditions: 10 μM compound
EGFR(E746-A750del) = EGFR(E746-A750del) (Homo sapiens, UniProt P00533, DEL746-750); assay: biochemical; format: binding; conditions: read-out: Percent Control
PIK3CA(I800L) = PIK3CA(I800L) (Homo sapiens, UniProt P42336, I800L); assay: biochemical; format: binding; conditions: read-out: Percent Control
Chain of PIK3CA(I800L) (P42336 whole entry I800L): as the sequence (P42336 whole entry H1047L) above, with I800L, L1047H counted along it

[2] = target: ABL1(H396P)-nonphosphorylated (Homo sapiens, UniProt P00519, H396P); assay: biochemical; format: binding; conditions: read-out: Percent Control
KIT(V559D,V654A) = KIT(V559D,V654A) (Homo sapiens, UniProt P10721, V559D/V654A); assay: biochemical; format: binding; conditions: read-out: Percent Control
Chain of KIT(V559D,V654A) (P10721 26-976 V559D/V654A): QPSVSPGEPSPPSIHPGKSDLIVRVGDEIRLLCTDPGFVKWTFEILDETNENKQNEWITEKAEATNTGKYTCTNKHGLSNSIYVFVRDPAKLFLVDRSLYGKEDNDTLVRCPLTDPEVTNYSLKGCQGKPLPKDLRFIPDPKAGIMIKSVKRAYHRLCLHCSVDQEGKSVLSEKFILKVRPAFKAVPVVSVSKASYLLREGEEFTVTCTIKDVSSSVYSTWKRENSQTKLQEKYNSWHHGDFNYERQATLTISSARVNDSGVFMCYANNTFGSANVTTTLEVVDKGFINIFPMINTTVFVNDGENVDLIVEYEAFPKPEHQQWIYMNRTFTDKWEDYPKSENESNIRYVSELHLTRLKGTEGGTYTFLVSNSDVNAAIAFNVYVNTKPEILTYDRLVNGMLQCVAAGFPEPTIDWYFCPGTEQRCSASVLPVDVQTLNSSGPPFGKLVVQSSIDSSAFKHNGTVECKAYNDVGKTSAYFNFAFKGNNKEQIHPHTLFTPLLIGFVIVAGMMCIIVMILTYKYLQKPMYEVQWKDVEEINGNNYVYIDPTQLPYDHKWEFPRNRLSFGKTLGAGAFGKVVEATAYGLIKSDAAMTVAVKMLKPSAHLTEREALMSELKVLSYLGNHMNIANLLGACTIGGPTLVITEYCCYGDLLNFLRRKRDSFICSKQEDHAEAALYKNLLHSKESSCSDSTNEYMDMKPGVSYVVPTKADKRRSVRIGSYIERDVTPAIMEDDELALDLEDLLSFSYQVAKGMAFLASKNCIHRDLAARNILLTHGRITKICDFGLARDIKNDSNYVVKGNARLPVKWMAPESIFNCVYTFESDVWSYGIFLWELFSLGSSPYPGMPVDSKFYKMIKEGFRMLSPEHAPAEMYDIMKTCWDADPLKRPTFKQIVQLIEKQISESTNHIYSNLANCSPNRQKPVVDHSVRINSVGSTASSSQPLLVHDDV

EGFR(L747-T751del,Sins) = format: binding
MAP3K9 = MAP3K9 (Homo sapiens, UniProt P80192); format: cell-based; conditions: HEK-293T; 1 μM inhibitor, HEK293T cells
Method in brief: (§1)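 Occupancy is computed for each kinase from filtered luminescence (450 nm donor, 610 nm acceptor). The assay uses HEK293T cells transiently expressing K192 kit constructs for 20 h, exposed to Tracer K10 at kit-recommended levels and to inhibitor at 1 μM.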

PRKACB = PRKACB (Homo sapiens, UniProt P22694); format: cell-based; conditions: HEK-293T; 1 μM inhibitor, HEK293T cells
Method in brief: as §1

HIPK2 = HIPK2 (Homo sapiens, UniProt Q9H2X6); format: cell-based; conditions: HEK-293T; 1 μM inhibitor, HEK293T cells
Chain of HIPK2 (Q9H2X6 whole entry): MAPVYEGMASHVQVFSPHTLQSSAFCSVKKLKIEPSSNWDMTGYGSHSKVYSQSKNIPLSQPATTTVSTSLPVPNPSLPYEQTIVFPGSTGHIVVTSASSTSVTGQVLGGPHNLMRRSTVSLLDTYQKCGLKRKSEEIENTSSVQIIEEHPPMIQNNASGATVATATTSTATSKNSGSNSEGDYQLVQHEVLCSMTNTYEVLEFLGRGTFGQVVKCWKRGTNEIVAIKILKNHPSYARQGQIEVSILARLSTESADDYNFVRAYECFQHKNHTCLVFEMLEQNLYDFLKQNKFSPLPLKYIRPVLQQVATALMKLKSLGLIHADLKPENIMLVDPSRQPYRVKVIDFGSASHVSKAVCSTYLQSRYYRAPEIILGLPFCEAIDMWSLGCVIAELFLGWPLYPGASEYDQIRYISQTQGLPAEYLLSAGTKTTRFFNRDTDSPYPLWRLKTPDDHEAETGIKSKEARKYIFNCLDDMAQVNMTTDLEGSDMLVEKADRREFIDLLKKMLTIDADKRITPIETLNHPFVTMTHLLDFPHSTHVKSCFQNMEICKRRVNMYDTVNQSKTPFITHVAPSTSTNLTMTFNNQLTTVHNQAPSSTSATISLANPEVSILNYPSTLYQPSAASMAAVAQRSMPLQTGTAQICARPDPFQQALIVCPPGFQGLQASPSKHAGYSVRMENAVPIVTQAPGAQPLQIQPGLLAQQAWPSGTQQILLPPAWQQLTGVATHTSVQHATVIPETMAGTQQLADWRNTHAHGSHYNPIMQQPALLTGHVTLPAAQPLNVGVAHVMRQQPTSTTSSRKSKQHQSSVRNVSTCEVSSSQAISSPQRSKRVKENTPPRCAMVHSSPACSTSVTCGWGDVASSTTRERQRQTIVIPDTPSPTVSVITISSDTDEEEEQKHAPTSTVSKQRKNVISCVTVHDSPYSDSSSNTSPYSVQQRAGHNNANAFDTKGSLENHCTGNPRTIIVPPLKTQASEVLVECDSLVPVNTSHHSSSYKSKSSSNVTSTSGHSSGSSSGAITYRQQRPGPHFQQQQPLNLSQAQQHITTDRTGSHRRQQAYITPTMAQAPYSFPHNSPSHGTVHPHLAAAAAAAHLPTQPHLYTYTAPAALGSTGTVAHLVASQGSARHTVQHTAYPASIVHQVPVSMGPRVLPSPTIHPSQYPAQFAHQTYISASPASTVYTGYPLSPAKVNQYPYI
Method in brief: as §1

FLT3 = FLT3 (Homo sapiens, UniProt P36888); format: cell-based; conditions: HEK-293T; 1 μM inhibitor, HEK293T cells
Method in brief: as §1

PRKAA1 = PRKAA1 (Homo sapiens, UniProt Q13131); format: cell-based; conditions: HEK-293T; 1 μM inhibitor, HEK293T cells
Chain of PRKAA1 (Q13131 whole entry): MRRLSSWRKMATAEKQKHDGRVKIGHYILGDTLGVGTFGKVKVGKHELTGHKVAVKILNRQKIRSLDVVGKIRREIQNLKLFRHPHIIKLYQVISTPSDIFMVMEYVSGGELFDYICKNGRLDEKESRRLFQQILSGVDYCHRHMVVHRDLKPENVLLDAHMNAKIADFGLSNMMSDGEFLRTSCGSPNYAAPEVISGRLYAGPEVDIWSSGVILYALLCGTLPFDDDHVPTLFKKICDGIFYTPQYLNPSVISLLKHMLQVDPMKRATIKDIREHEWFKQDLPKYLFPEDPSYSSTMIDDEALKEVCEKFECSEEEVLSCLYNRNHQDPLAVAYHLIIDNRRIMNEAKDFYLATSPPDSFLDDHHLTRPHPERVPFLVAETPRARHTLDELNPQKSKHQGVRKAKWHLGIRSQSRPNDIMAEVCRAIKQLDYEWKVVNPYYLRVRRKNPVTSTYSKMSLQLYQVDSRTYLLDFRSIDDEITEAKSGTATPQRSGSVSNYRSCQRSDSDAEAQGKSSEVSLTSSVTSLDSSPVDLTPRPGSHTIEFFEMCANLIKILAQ
Method in brief: as §1

RIOK2 = RIOK2 (Homo sapiens, UniProt Q9BVS4); format: cell-based; conditions: HEK-293T; 1 μM inhibitor, HEK293T cells
Method in brief: as §1

TIE1 = TIE1 (Homo sapiens, UniProt P35590); format: cell-based; conditions: HEK-293T; 1 μM inhibitor, HEK293T cells
Method in brief: as §1

BTK = target: T2, BTK (Homo sapiens, UniProt Q06187); format: cell-based; conditions: HEK-293T; 1 μM inhibitor, HEK293T cells
T2 construct: full-length LIMK1/2, RIPK1, BTK, and LRRK2 cloned in a frame in a NanoLuc-vector (Promega); host or cells: HEK293T
Method in brief: as §1

PIK3CA(H1047L) [3] = target: T1, PIK3CA(H1047L); assay: biochemical; format: binding; conditions: read-out: Percent Control
FGFR3(G697C) = FGFR3(G697C) (Homo sapiens, UniProt P22607, G697C); assay: biochemical; format: binding; conditions: compound concentration 100 nM; Entrez FGFR3; read-out: Percent Control
Chain of FGFR3(G697C) (P22607 23-806 G697C): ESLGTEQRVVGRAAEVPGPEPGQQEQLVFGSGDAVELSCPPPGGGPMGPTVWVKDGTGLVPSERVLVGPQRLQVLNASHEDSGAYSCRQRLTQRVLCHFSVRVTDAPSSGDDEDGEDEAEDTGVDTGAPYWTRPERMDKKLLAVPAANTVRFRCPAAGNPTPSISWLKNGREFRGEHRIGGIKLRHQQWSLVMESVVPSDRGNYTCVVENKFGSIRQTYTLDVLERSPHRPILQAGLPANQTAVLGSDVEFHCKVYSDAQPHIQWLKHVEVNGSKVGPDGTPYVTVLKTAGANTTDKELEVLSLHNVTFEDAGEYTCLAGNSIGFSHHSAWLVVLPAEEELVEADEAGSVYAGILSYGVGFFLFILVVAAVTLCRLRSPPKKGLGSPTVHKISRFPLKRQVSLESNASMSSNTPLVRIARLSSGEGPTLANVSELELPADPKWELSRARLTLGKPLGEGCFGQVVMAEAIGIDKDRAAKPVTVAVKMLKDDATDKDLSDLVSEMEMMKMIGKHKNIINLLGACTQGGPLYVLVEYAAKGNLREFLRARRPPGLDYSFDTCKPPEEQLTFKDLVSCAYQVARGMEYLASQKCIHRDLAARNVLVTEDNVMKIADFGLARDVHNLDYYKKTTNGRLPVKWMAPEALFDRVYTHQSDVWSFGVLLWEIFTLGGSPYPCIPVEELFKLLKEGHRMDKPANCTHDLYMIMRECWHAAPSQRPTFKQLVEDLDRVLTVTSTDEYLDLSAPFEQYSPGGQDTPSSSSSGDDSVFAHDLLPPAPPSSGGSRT

EGFR(L858R,T790M) = EGFR(L858R,T790M) (Homo sapiens, UniProt P00533, L858R/T790M); assay: biochemical; format: binding; conditions: read-out: Percent Control
FLT3(N841I) = FLT3(N841I) (Homo sapiens, UniProt P36888, N841I); assay: biochemical; format: binding; conditions: 1000 nM, read-out: Percent Control
ALK(C1156Y) = ALK(C1156Y) (Homo sapiens, UniProt Q9UM73, C1156Y); assay: biochemical; format: binding; conditions: 1000 nM, read-out: Percent Control
[4] = target: ABL1(F317L)-nonphosphorylated (Homo sapiens, UniProt P00519, F317L); assay: biochemical; format: binding; conditions: read-out: Percent Control
[5] = target: ABL1(Q252H)-nonphosphorylated (Homo sapiens, UniProt P00519, Q252H); assay: biochemical; format: binding; conditions: read-out: Percent Control
ALK(L1196M) = ALK(L1196M) (Homo sapiens, UniProt Q9UM73, L1196M); assay: biochemical; format: binding; conditions: 1000 nM, read-out: Percent Control
PIK3CA(C420R) = PIK3CA(C420R) (Homo sapiens, UniProt P42336, C420R); assay: biochemical; format: binding; conditions: read-out: Percent Control
Chain of PIK3CA(C420R) (P42336 whole entry C420R): as the sequence (P42336 whole entry H1047L) above, with C420R, L1047H counted along it

Chain of EGFR(S752-I759del) (P00533 other isoform, or with tags, fused parts or gaps DEL752-759): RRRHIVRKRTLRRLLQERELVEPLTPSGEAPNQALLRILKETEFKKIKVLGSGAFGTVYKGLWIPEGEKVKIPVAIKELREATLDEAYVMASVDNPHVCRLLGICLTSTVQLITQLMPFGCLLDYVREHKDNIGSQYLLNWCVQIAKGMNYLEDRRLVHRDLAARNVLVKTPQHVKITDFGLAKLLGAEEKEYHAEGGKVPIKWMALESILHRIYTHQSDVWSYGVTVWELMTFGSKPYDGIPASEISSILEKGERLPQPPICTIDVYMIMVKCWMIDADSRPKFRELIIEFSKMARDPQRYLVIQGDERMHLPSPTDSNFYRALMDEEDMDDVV
Chain of KIT(V559D) (P10721 26-976 V559D): as the sequence (P10721 26-976 V559D/V654A) above, with A629V counted along it

## CN1C(=O)[C@@H](N2CCc3c(nn(Cc4ccccc4)c3C(N)=O)C2=O)COc2cc(Cl)ccc21 [Compound 10, (S)-2-benzyl-6-(8-chloro-5-methyl-4-oxo-2,3,4,5-tetrahydrobenzo[b][1,4]oxazepin-3-yl)-7-oxo-4,5,6,7-tetrahydro-2H-pyrazolo[3,4-c]pyridine-3-carboxamide]
EGFR(S752-I759del)
  remaining activity at 1 µM: 89%
FLT3(R834Q)
  remaining activity at 1 µM: 92%
KIT(V559D)
  remaining activity at 1 µM: 85%
PIK3CA(H1047L) [1]
  remaining activity at 0.1 µM: 75%
EGFR(L858R)
  remaining activity at 0.1 µM: 100%
EGFR(G719S)
  remaining activity at 1 µM: 92%
BRPF1B
  ΔTm at 10 µM: -0.1 °C
EGFR(E746-A750del)
  remaining activity at 1 µM: 86%
PIK3CA(I800L)
  remaining activity at 1 µM: 89%
[2]
  remaining activity at 1 µM: 66%
KIT(V559D,V654A)
  remaining activity at 1 µM: 92%
EGFR(L747-T751del,Sins)
  Percent Control: 97%
MAP3K9
  receptor occupancy at 1 µM: 8.3%
PRKACB
  receptor occupancy at 1 µM: 0.396%
HIPK2
  receptor occupancy at 1 µM: 16%
FLT3
  receptor occupancy at 1 µM: -3.18%
PRKAA1
  receptor occupancy at 1 µM: -3.79%
RIOK2
  receptor occupancy at 1 µM: -2.88%
TIE1
  receptor occupancy at 1 µM: -1.51%
BTK
  receptor occupancy at 1 µM: -8.22%
PIK3CA(H1047L) [3]
  remaining activity at 1 µM: 99%
FGFR3(G697C)
  remaining activity at 0.1 µM: 92%
EGFR(L858R,T790M)
  remaining activity at 1 µM: 100%
FLT3(N841I)
  remaining activity at 1 µM: 96%
ALK(C1156Y)
  remaining activity at 1 µM: 82%
[4]
  remaining activity at 1 µM: 86%
[5]
  remaining activity at 1 µM: 79%
ALK(L1196M)
  remaining activity at 1 µM: 90%
PIK3CA(C420R)
  remaining activity at 1 µM: 92%

From PMC12090182, “Repurposing of the RIPK1-Selective Benzo[1,4]oxazepin-4-one Scaffold for the Development of a Type III LIMK1/2 Inhibitor” (ACS Chemical Biology, 2025)
